The results in this text go back to PMC9539280 (Advanced Science, 2022).

The test system of data set [1] is hCMs. The data set can be described thus: Spontaneous calcium transient measurement (Fluo-4) in hCMs. Particulars: spontaneous, 6 days.
For data set [2], the system named is hCMs.
Setting [3] is: escalating concentrations (lopinavir: high dosage only).

Take `CCC(CC)COC(=O)[C@H](C)N[P@](=O)(OC[C@H]1O[C@@](C#N)(c2ccc3c(N)ncnn23)[C@H](O)[C@@H]1O)Oc1ccccc1` [Remdesivir, remdesivir]: the calcium transient amplitude entry in the data set on hCMs [1] (escalating concentrations (1-20 μM)) is recorded as “tended to decrease”. In the data set on hCMs [1] (setting [3]), the “time to 50% decay of the calcium transients” value was “significantly increased” and the “time to peak of the calcium transients” value is reported as “significantly increased”.

`Cc1cccc(/C=N/Nc2cc(N3CCOCC3)nc(OCCc3ccccn3)n2)c1` [Apilimod, apilimod]: in the data set on hCMs [2], the spontaneous calcium transients result is given as “no calcium transients were observed”.
